Results on two molecules are retold here after patent US20160067298A1, “MUSCADINE GRAPE SKIN EXTRACT AS TREATMENT FOR BONE METASTATIC CANCER” (Clark Atlanta University, priority 2014, published 2016).

Entries after “also recorded” stand apart in the source; their conditions may differ. Peptide text beside a SMILES is read from it. * marks the point of attachment. Cbz = O=C(OCc1ccccc1)*

One experiment has as its system Snail. As to the kind of experiment: Western blot analysis, Snail. It is filed as cell-based, human. To be noted: 5 μM Z-FY-CHO, 72 h. Here is the method: (§1) We also performed Western blot analysis of whole cell lysates obtained from untreated control and MSKE treatments. ARCaPE and MCF-7 cells over expressing Snail were treated with MSKE for 3 days, and probed for Snail, phosph-STAT-3 (p-STAT3), and […] Western blot analysis.
(§2) Cells were lysed in a modified RIPA buffer (50 mM Tris pH 8.0, 150 mM NaCl, 0.02% NaN3, 0.1% SDS, 1% NP-40, 0.5% sodium deoxycholate) containing 1.5× protease inhibitor cocktail, 1 mM phenylmethylsufonyl fluoride (PMSF), and 1 mM sodium orthovanadate. Whole cell lysates were freeze-thawed at −80° C./4° C. for three cycles, then centrifuged at 13,000 rpm for 30 min at 4° C. Supernatants were collected and quantified using a micro BCA assay (Promega, Madison, Wis.). 40 μg of cell lysate was resolved using 10% SDS PAGE, followed by transblotting onto nitrocellulose membrane (Bio-Rad Laboratories, Hercules, Calif.). Membranes were blocked with 3% milk (TBS-T containing 3% milk), then washed and incubated with primary antibody dilution buffer. […]
(§3) The expression levels of Snail, mature CatL, STAT-3 and Phospho-STAT-3 (pstat-3) were determined with western blot. […] Mature Cathepsin L activity was determined by gelatin zymography. Cathepsin L activity was quantified with densitometry of each band on the gel. […]
In general terms: A western blot detects proteins with antibodies after separation by electrophoresis.

In experiment [1] the test system is ARCaP-Snail/MCF-7 Snail co-cultured with spleen macrophages. As to the kind of experiment: In vitro osteoclastogenesis assay (TRAP staining of mature osteoclasts). The class given is cell-based, human. The conditions noted are these: vs untreated control. How it is done: We obtained MSKE from Dr Tamaro Hudson, our collaborator from Howard University and used it to perform osteoclastogenesis assay on prostate and breast cancer cell lines, including one in which Snail, a transcription factor, is overexpressed. 3×10^3 ARCaP-Neo/MCF-7 Neo or ARCaP-Snail/ MCF-7 Snail was co-cultured with 40×10^4 spleen macrophages in 48-well plates plus 1 ng/ml M-CSF plus or minus 5 μg/ml MSKE, 20 μg/ml MSKE, and 5 μM Z-FY-CHO CatL inhibitor.
The cells were fed every three days by replacing half the media with fresh media plus or minus MSKE or Z-FY-CHO. Macrophages alone were utilized as a negative control. After 7-14 days the cells were fixed with 3% formaldehyde and processed for TRAP staining according to manufacturer instructions, to visualize the formation of mature osteoclasts.
3×10^3 ARCaP-Neo/MCF-7 Neo or ARCaP-Snail/MCF-7 Snail was co-cultured with 40×10^4 spleen macrophages in 48-well plates plus 1 ng/ml M-CSF plus or minus 5 μg/mL MSKE, 20 μg/mL MSKE or […] Z-FY-CHO Cat L inhibitor. […]
3×10^3 or 1×10^3 prostate cancer cells overexpressing Snail (see FIG. 5) and breast cancer cells overexpressing Snail (FIG. 6) were co-cultured with 40×10^4 Macrophages for 14 days and treated with 50 ng/mL osteoprotogerin (control), 5 μM Z-FY-CHO, 5 μg/mL or 20 μg/ML MSKE. […] Osteoclasts were determined by having 3 or more nuclei (FIGS. 5 and 6 insets). […]

In experiment [2] the test system is MCF-7 and ARCaP-E cells over expressing Snail. As to the kind of experiment: In vitro cell migration assay (collagen I transwell). To be noted: 5 μM Z-FY-CHO for 72 hours; migration 5 hours. It is filed as cell-based, human. How it is done: We utilized Costar 24-well plates containing a polycarbonate filter insert with an 8-μm pore size, to coat with 4.46 μg/μl rat tail collagen I on the outside for 24 h at 4° C. 5×10^4 cells were plated in the upper chamber containing RPMI supplemented with 0.1% fetal bovine serum (FBS) while the lower chamber contained RPMI supplemented with 10% FBS. After 5 h, cells that migrated to the bottom of the insert were fixed, stained with 0.05% crystal violet, and counted to obtain the relative cell migration.
FIGS. 4A and 4B show MCF-7 and ARCaP-E cells over expressing Snail treated with 5 μg/mL, 20 μg/mL Muscadine Grape Skin Extract (MSKE) and 5 μM Z-FY-CHO for 72 hours. 5×10^4 cells were plated on transwell coated with Type-I collagen as described in the materials and methods section. The cells were allowed to migrate for 5 hours and then fixed and stained. The number of cells that migrated through the transwell membranes was determined by counting at least 4 random microscopic fields.

In the next experiment the test system is rat bone cells. To be noted: by inhibiting collagen degradation; cited from earlier work.
A further experiment has as its system p-STAT-3. As to the kind of experiment: Western blot analysis, phospho-STAT-3. The class given is cell-based, human. The conditions noted are these: 5 μM Z-FY-CHO, 72 h. How it is done: as §1, §2, §3
Experiment [3] relates to MCF-7 and ARCaP-E cells over expressing Snail. As to the kind of experiment: In vitro cell invasion assay (Matrigel). The conditions noted are these: 5 μM Z-FY-CHO for 72 hours; invasion 24 hours. The class given is cell-based, human. How it is done:
The invasive properties of the cell lines were measured using the BD BioCoat Matrigel Invasion guidelines. Briefly, Boyden chamber inserts (Thermo Fisher Scientific, Waltham, Mass., USA) were coated with 40 μl 1:4 Matrigel and allowed to solidify at 37° C. for 1 h. 5×10^4 cells were seeded in triplicate in 0.1% FBS, while the lower chamber contained 10% FBS. Cells were allowed to invade through the porous membrane coated with Matrigel at 37° C. for 24-72 h. Inserts were fixed, stained with 0.05% crystal violet. Cell counts were performed for the determination of relative cell invasion.
FIGS. 4C and 4D represent cell invasion of the same cell lines. 5×10^4 cells were plated on transwells coated with Matrigel. Cell invasion was allowed to take place for 24 hours. The number of cells that invaded through the transwell membranes were determined by counting at least 4 random microscopic fields. Compared to neo empty vector cells overexpressing Snail represent an increase in migration and invasion. MSKE and Z-FY-CHO decrease migratory and invasive cells. Asterisks represent p-value of statistical significance (n=3, ***p<0.001, **p<0.01, *p<0.05). Values were normalized to untreated controls and the mean±SEM of data were obtained from three independent replicate experiments with at least three wells per treatment group in each individual replicate. Statistical analysis was done with Student t test.

The next experiment deals with T1, Cathepsin L (CatL) (Homo sapiens, UniProt P07711).
T1 construct: endogenous in cells; host or cells: conditioned media of ARCaP-E Snail, MCF-7 Snail and C4-2 cells
T1 sequence (P07711 114-333): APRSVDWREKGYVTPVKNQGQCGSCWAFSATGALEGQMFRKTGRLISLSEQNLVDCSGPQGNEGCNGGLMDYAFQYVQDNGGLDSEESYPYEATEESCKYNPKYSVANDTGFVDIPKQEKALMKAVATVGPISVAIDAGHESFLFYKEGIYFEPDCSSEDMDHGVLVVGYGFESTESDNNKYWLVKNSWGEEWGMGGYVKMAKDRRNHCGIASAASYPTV
As to the kind of experiment: Cathepsin gelatin zymography of conditioned media. The class given is cell-based. The conditions noted are these: 5 μM Z-FY-CHO, 72 h; vs untreated control. Here is the method: We also performed cathepsin zymography to detect cathepsin activity in untreated control and MSKE treatments. ARCaPE and MCF-7 cells over expressing Snail were treated with MSKE for 3 days using the condition media from the […]. With these steps we were able to detect higher CatL activity (enzymes hydrolyze the embedded substrate in situ, and proteolytic activity can be visualized as cleared bands) in cells overexpressing Snail as compared to Neo empty vector control cells.
We utilized the cathepsin zymography technique as previously described. Briefly, 1 mL of conditioned media (CM) containing 0.1 mM leupeptin was concentrated utilizing vivaspin tube (GE Health Care). The concentrated CM was diluted by adding […] of the sample to 45 μl of 1× RIPA buffer followed by determination of the protein concentration using BCA protein assay kit. […] Cathepsin activity was subsequently quantified using densitometry (NIH Image J). […]
as §3

Another experiment deals with mature CatL. As to the kind of experiment: Western blot analysis, mature CatL. The class given is cell-based, human. To be noted: 5 μM Z-FY-CHO, 72 h. Here is the method:
as §1, §2, §3

For `O=C[C@H](Cc1ccc(O)cc1)NC(=O)[C@H](Cc1ccccc1)NC(=O)OCc1ccccc1` [Z-FY-CHO] (Cbz-Phe-Tyr-aldehyde), in the experiment with Snail, the Snail expression entry is recorded as “decrease”. The formation of osteoclasts result in experiment [1] (5 μM Z-FY-CHO, prostate and breast cancer cells overexpressing Snail co-cultured with macrophages) is given as “significantly decrease; also recorded: significantly abrogated”. The cell migration result in experiment [2] is listed as “abrogated; also recorded: decrease”. Moreover, in the experiment with rat bone cells, the bone resorption entry was “inhibit”. In the experiment on p-STAT-3, the “STAT-3 activation (p-STAT-3)” value was “decrease”. Besides, in experiment [3], the cell invasion entry was “abrogated; also recorded: decrease”. The “amount of active CatL (CatL activity)” value at Cathepsin L (CatL) is “significantly decreased; also recorded: decrease”. In addition, the “Cat L expression” value in the experiment with mature CatL was “decrease”.

B1: OPG: Osteoprotegerin, decoy receptor that binds RANKL; used as control in osteoclastogenesis assay (protein, UniProt O00300 22-401, looked up)
Tumor necrosis factor …: ETFPPKYLHYDEETSHQLLCDKCPPGTYLKQHCTAKWKTVCAPCPDHYYTDSWHTSDECLYCSPVCKELQYVKQECNRTHNRVCECKEGRYLEIEFCLKHRSCPPGFGVVQAGTPERNTVCKRCPDGFFSNETSSKAPCRKHTNCSVFGLLLTQKGNATHDNICSGNSESTQKCGIDVTLCEEAFFRFAVPTKFTPNWLSVLVDNLPGTKVNAESVERIKRQHSSQEQTFQLLKLWKHQNKDQDIVKKIIQDIDLCENSVQRHIGHANLTFEQLRSLMESLPGKKVGAEDIEKTIKACKPSDQILKLLSLWRIKNGDQDTLKGLMHALKHSKTYHFPKTVTQSLKKTIRFLHSFTMYKLYQKLFLEMIGNQVQSVKISCL
For the molecule B1, the formation of osteoclasts entry in experiment [1] (50 ng/ml OPG) is listed as “significantly decreased”.
